Source: patent publication US9896441B2 (Lycera Corporation, priority 2014, dated 2018)

Legend:
[1] = molecular target: T1, RORγ-LBD (Homo sapiens, UniProt P51449); assay: RORγ-Ligand Binding Domain (LBD) TR-FRET Assay; type: biochemical; settings: for TR-FRET Assay Max Response: maximum response;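 as to TR-FRET Assay Max Response: 665/615 nm signal ratio set to 100 without ursolic acid or test compound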
T1 construct: made in house; host or cells: SF9 cells (baculovirus); used as diluted lysate
T1 sequence (P51449 269-508 limits assumed): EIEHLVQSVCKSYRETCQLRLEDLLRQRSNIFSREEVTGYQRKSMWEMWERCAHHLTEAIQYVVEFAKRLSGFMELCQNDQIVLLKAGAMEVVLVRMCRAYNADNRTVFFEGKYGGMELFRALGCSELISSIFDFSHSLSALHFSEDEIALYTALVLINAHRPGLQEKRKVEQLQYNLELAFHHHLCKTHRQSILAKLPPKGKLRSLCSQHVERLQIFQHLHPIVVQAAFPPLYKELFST
Summary of the method: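 His-tagged RORγ-LBD from SF9 baculovirus lysate, ~3 nM final, in 50 mM Tris pH 7.0, 50 mM KCl, 1 mM EDTA, 0.1 mM DTT, 0.01% BSA. Biotinylated SRC1 LXXLL peptide at 200 nM final with 2 μM ursolic acid; TR-FRET read-out, 1% DMSO final.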

[2] = molecular target: T2, Gal4-RORγ-LBD (Homo sapiens, UniProt P51449); assay: Gal4-RORγ Luciferase Reporter Assay in HEK-293T Cells; type: cell-based; settings: HEK-293 cells, luciferase reporter; for Gal4-RORγ Assay Max Response: maximum response
T2 construct: expressed in transfected cells
T2 sequence (P51449 269-508 limits assumed): T1 sequence (P51449 269-508 limits assumed)
Summary of the method: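 HEK-293 cells were co-transfected with Gal4-RORγ-LBD and a Gal4-luciferase reporter, then exposed overnight at 37 °C to compounds with […] ursolic acid present (0.2% DMSO). Luminescence was read with One-Glo after 10 min at RT, untreated signal was set as 100, and Max Response was taken as the upper plateau of a 4-parameter logistic fit.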

| Structure (SMILES) | EC50 ([1]; RORγ-LBD TR-FRET) [µM] | EC50 ([2]; with ursolic acid) [µM] | EC50 ([1]; RORγ-LBD TR-FRET assay) [µM] | TR-FRET Assay Max Response ([1]; RORγ-LBD TR-FRET assay) | EC50 ([2]; in presence of ursolic acid) [µM] | Gal4-RORγ Assay Max Response ([2]; in presence of ursolic acid) |
| --- | --- | --- | --- | --- | --- | --- |
| Cc1cccnc1/C=C/c1ccc2c(c1)N(S(=O)(=O)c1cccc(C(F)(F)F)c1)C[C@H](CCC(=O)O)O2 [Example 89BJ, (S,E)-3-(6-(2-(3-methylpyridin-2-yl)vinyl)-4-((3-(trifluoromethyl)phenyl)sulfonyl)-3,4-dihydro-2H-benzo[b][1,4]oxazin-2-yl)propanoic acid] | < 0.5 | 0.5 to 5 | – | – | – | – |
| CCOc1nn(CC)cc1S(=O)(=O)N1C[C@H](CCC(=O)OC)Oc2ccc(/C=C/c3c(Cl)cccc3C(F)(F)F)cc21 [Example 89DP, methyl (S,E)-3-(6-(2-chloro-6-(trifluoromethyl)styryl)-4-((3-ethoxy-1-ethyl-1H-pyrazol-4-yl)sulfonyl)-3,4-dihydro-2H-benzo[b][1,4]oxazin-2-yl)propanoate] | < 0.5 | < 0.5 | – | – | – | – |
| O=C(O)CC[C@H]1CN(S(=O)(=O)c2cccc(C(F)(F)F)c2)c2cc(/C=C/c3ncccc3F)ccc2O1 [Example 89CE, (S,E)-3-(6-(2-(3-fluoropyridin-2-yl)vinyl)-4-((3-(trifluoromethyl)phenyl)sulfonyl)-3,4-dihydro-2H-benzo[b][1,4]oxazin-2-yl)propanoic acid] | < 0.5 | 0.5 to 5 | – | – | – | – |
| COc1cc(S(=O)(=O)N2CCCc3ccc(OCc4c(Cl)cccc4C(F)(F)F)cc32)ccc1F [Example 25Q, 7-((2-chloro-6-(trifluoromethyl)benzyl)oxy)-1-((4-fluoro-3-methoxyphenyl)sulfonyl)-1,2,3,4-tetrahydroquinoline] | < 0.5 | < 0.5 | – | – | – | – |
| C/C(=C\c1ccc2c(c1)N(S(=O)(=O)c1cccc(C(F)(F)F)c1)C[C@H](CCC(=O)N1CCNCC1)O2)c1c(F)cccc1Cl [Example 127F, (S,E)-3-(6-(2-(2-chloro-6-fluorophenyl)prop-1-en-1-yl)-4-((3-(trifluoromethyl)phenyl)sulfonyl)-3,4-dihydro-2H-benzo[b][1,4]oxazin-2-yl)-1-(piperazin-1-yl)propan-1-one] | – | – | < 0.5 | **** (a value greater than 200) | 0.5 to 5 | ** (a value in the range of greater than 90 to 150) |
| O=C(O)CC[C@H]1CN(S(=O)(=O)c2cccc(OC(F)F)c2)c2cc(/C=C/c3c(F)cccc3C(F)(F)F)ccc2O1 [Example 89AI, (S,E)-3-(4-((3-(difluoromethoxy)phenyl)sulfonyl)-6-(2-fluoro-6-(trifluoromethyl)-styryl)-3,4-dihydro-2H-benzo[b][1,4]oxazin-2-yl)propanoic acid] | < 0.5 | 0.5 to 5 | – | – | – | – |
| CCOc1nn(CC)cc1S(=O)(=O)N1C[C@H](CCC(=O)OC)Oc2ccc(/C=C/c3ccsc3)cc21 [Example 89L, (S,E)-methyl 3-(4-((3-ethoxy-1-ethyl-1H-pyrazol-4-yl)sulfonyl)-6-(2-(thiophen-3-yl)vinyl)-3,4-dihydro-2H-benzo[b][1,4]oxazin-2-yl)propanoate] | < 0.5 | 0.5 to 5 | – | – | – | – |
| CCOc1nn(CC)cc1S(=O)(=O)N1C[C@H](CCC(=O)O)Oc2ccc(/C=C/c3cccc(OC)n3)cc21 [Example 89S, (S,E)-3-(4-((3-ethoxy-1-ethyl-1H-pyrazol-4-yl)sulfonyl)-6-(2-(6-methoxypyridin-2-yl)vinyl)-3,4-dihydro-2H-benzo[b][1,4]-oxazin-2-yl)propanoic acid] | 0.5 to 5 | > 10 | – | – | – | – |
| COc1cc(S(=O)(=O)N2c3cc(OC4CCc5ccccc54)ccc3C[C@@H](C(=O)O)[C@H]2C)ccc1F (mixture of isomers) [Example 22, (2R,3R)-7-((2,3-Dihydro-1H-inden-1-yl)oxy)-1-((4-fluoro-3-methoxy-phenyl)sulfonyl)-2-methyl-1,2,3,4-tetrahydroquinoline-3-carboxylic acid] | < 0.5 | 0.5 to 5 | – | – | – | – |
| O=C(O)CC[C@H]1CN(S(=O)(=O)c2cccc(C(F)(F)F)c2)c2cc(/C=C/c3ccncn3)ccc2O1 [Example 89CC, (S,E)-3-(6-(2-(pyrimidin-4-yl)vinyl)-4-((3-(trifluoromethyl)-phenyl)sulfonyl)-3,4-dihydro-2H-benzo[b][1,4]oxazin-2-yl)propanoic acid] | > 10 | > 10 | – | – | – | – |
| C/C(=C\c1cc2c(cc1F)O[C@@H](CCC(=O)O)CN2S(=O)(=O)c1cccc(C(F)(F)F)c1)c1c(F)cccc1Cl [Example 42, (S,E)-3-(6-(2-(2-Chloro-6-fluorophenyl)prop-1-en-1-yl)-7-fluoro-4-((3-(trifluoromethyl)phenyl)sulfonyl)-3,4-dihydro-2H-benzo[b][1,4]oxazin-2-yl)propanoic acid] | < 0.5 | 0.5 to 5 | – | – | – | – |
| CCOc1nn(CC)cc1S(=O)(=O)N1C[C@H](CCC(=O)OC)Oc2ccc(/C=C/c3ccccc3C)cc21 [Example 89AT, (S,E)-methyl 3-(4-((3-ethoxy-1-ethyl-1H-pyrazol-4-yl)sulfonyl)-6-(2-methylstyryl)-3,4-dihydro-2H-benzo[b][1,4]oxazin-2-yl)propanoate] | < 0.5 | 0.5 to 5 | – | – | – | – |
| O=C(O)CC[C@H]1CN(S(=O)(=O)c2cc(Cl)cnc2OCCO)c2cc(/C=C/c3c(F)cccc3Cl)ccc2O1 [Example 89AL, (S,E)-3-(4-((5-chloro-2-(2-hydroxyethoxy)pyridin-3-yl)sulfonyl)-6-(2-chloro-6-fluorostyryl)-3,4-dihydro-2H-benzo[b][1,4]oxazin-2-yl)propanoic acid] | < 0.5 | 0.5 to 5 | – | – | – | – |
| O=C(O)C1CN(C(=O)CC[C@H]2CN(S(=O)(=O)c3cccc(C(F)(F)F)c3)c3cc(/C=C/c4c(Cl)cccc4C(F)(F)F)ccc3O2)C1 [Example 129G, (S,E)-1-(3-(6-(2-chloro-6-(trifluoromethyl)styryl)-4-((3-(trifluoromethyl)-phenyl)sulfonyl)-3,4-dihydro-2H-benzo[b][1,4]oxazin-2-yl)propanoyl)azetidine-3-carboxylic acid] | – | – | < 0.5 | **** (a value greater than 200) | < 0.5 | ** (a value in the range of greater than 90 to 150) |
| O=C(O)CC[C@H]1CN(S(=O)(=O)c2cccc(C(F)(F)F)c2)c2cc(/C=C/c3cccc(Cl)c3C(F)(F)F)ccc2O1 [Example 89CO, (S,E)-3-(6-(3-chloro-2-(trifluoromethyl)styryl)-4-((3-(trifluoromethyl)phenyl)sulfonyl)-3,4-dihydro-2H-benzo[b][1,4]oxazin-2-yl)propanoic acid] | < 0.5 | 0.5 to 5 | – | – | – | – |
| CCOc1nn(CC)cc1S(=O)(=O)N1C[C@H](CCC(=O)O)Oc2ccc(/C=C/c3ccccc3SC)cc21 [Example 89AU, (S,E)-3-(4-((3-ethoxy-1-ethyl-1H-pyrazol-4-yl)sulfonyl)-6-(2-(methylthio)styryl)-3,4-dihydro-2H-benzo[b][1,4]oxazin-2-yl)propanoic acid] | < 0.5 | < 0.5 | – | – | – | – |
| CCOc1nn(CC)cc1S(=O)(=O)N1C[C@H](CCC(=O)O)Oc2ccc(/C=C/c3ccccc3C)cc21 [Example 89AS, (S,E)-3-(4-((3-ethoxy-1-ethyl-1H-pyrazol-4-yl)sulfonyl)-6-(2-methylstyryl)-3,4-dihydro-2H-benzo[b][1,4]oxazin-2-yl)propanoic acid] | < 0.5 | > 10 | – | – | – | – |
| O=C(O)CC[C@H]1CN(S(=O)(=O)c2cccc(OC(F)F)c2)c2cc(/C=C/c3c(F)cccc3Cl)ccc2O1 [Example 89A, (S,E)-3-(6-(2-chloro-6-fluorostyryl)-4-((3-(difluoromethoxy)phenyl)sulfonyl)-3,4-dihydro-2H-benzo[b][1,4]oxazin-2-yl)propanoic acid] | < 0.5 | 0.5 to 5 | – | – | – | – |
| CCOc1ncc(C(F)(F)F)cc1S(=O)(=O)N1C[C@H](CCC(=O)O)Oc2ccc(/C=C(\C)c3c(Cl)cccc3C(F)(F)F)cc21 [Example 77, (S,E)-3-(6-(2-(2-Chloro-6-(trifluoromethyl)phenyl)prop-1-en-1-yl)-4-((2-ethoxy-5-(trifluoromethyl)pyridin-3-yl)sulfonyl)-3,4-dihydro-2H-benzo[b][1,4]oxazin-2-yl)propanoic acid] | < 0.5 | 0.5 to 5 | – | – | – | – |
| CC/C(=C\c1ccc2c(c1)N(S(=O)(=O)c1cccc(C(F)(F)F)c1)C[C@H](CCC(=O)O)O2)c1ccccc1 [Example 36C, (S,E)-3-(6-(2-phenylbut-1-en-1-yl)-4-((3-(trifluoromethyl)-phenyl)sulfonyl)-3,4-dihydro-2H-benzo[b][1,4]oxazin-2-yl)propanoic acid] | < 0.5 | 0.5 to 5 | – | – | – | – |
| COC(=O)CC[C@H]1CN(S(=O)(=O)c2cccc(C(F)(F)F)c2)c2c(ccc(/C=C(\C)c3c(F)cccc3Cl)c2C)O1 [Example 57, Methyl (S,E)-3-(6-(2-(2-chloro-6-fluorophenyl)prop-1-en-1-yl)-5-methyl-4-((3-(trifluoromethyl)phenyl)sulfonyl)-3,4-dihydro-2H-benzo[b][1,4]oxazin-2-yl)propanoate] | < 0.5 | > 10 | – | – | – | – |
